{"source": "paper PMC2931818", "about": "(Anti-cancer drugs, 2010)", "key": {"[1]": {"assay": "5-FU plasma concentration at steady state during 46-h infusion", "format": "in vivo, human", "conditions": "cycle 2; 2400 mg/m^2 46-h continuous infusion"}, "[2]": {"test_system": "HCT-116 colon, SCC-25 tongue, A427 NSCL and J82 human carcinoma cell lines", "conditions": "variety of cell lines (e.g. colon, non-small cell, lung, tongue and bladder); cited from earlier work"}, "[3]": {"test_system": "patients with advanced/metastatic solid tumors"}, "P450": {"test_system": "P450", "conditions": "cited from earlier work"}, "[4]": {"test_system": "patients with solid tumors", "conditions": "single agent, cited from earlier work"}, "topoisomerase I (Topo I)": {"test_system": "topoisomerase I (Topo I)", "conditions": "cited from earlier work"}, "[5]": {"test_system": "cells that have acquired resistance related to P-glycoprotein", "conditions": "cited from earlier work"}, "[6]": {"assay": "Edotecarin plasma pharmacokinetics in cancer patients after 1-h IV infusion", "format": "in vivo, human", "conditions": "for AUC (0-inf) / AUC (0–24): 6 mg/m^2 dose only; for AUC (0-inf) / AUC (0–24) / CL (total body-clearance) / T (terminal half-life) / Vss / Dose normalized AUC (0-inf) / Dose normalized AUC (0–24) / Dose normalized Cmax / half-life / Tmax: mean ± SD; for Dose normalized AUC (0-inf) / Dose normalized AUC (0–24) / Dose normalized Cmax: normalized to a 1 mg/m^2 dose; for half-life / Tmax: human, plasma, intravenous; for half-life: T (terminal half-life)"}, "liver micrometastases": {"test_system": "liver micrometastases", "conditions": "mice; cited from earlier work"}, "[7]": {"test_system": "irinotecan-naïve patients with CRC", "conditions": "single agent 13 mg/m^2, cited from earlier work"}, "[8]": {"test_system": "advanced/metastatic solid tumors", "assay": "Tumor response by Response Evaluation Criteria in Solid Tumors", "format": "in vivo, human", "conditions": "14 treated patients, edotecarin/5-FU/LV"}, "[9]": {"test_system": "human CRC model (HCT-116)", "conditions": "no added toxicity; cited from earlier work"}, "[10]": {"conditions": "all 14 patients, all cycles, edotecarin with 5-FU/LV"}}}
{"smiles": "O=c1[nH]cc(F)c(=O)[nH]1", "note": "[5-FU, 5-fluorouracil]", "values": [{"measurement": "average concentration obtained at steady state", "setting": "[1]", "value": "455.9 ± 222.8", "unit": "ng/mL"}]}
{"smiles": "O=C1c2c(c3c4ccc(O)cc4n([C@@H]4O[C@H](CO)[C@@H](O)[C@H](O)[C@H]4O)c3c3[nH]c4cc(O)ccc4c23)C(=O)N1NC(CO)CO", "note": "[Edotecarin, 6–N-(1-hydroxymethyla-2-hydroxyl) ethylamino-12,13-dihydro-13-(beta-D-glucopyranosyl)-5Hindolo(2,3-a)-pyrrolo(3,4-c)-carbazole-5,7(6H)-dione]", "values": [{"measurement": "effect of the combination of edotecarin with 5-FU", "setting": "[2]", "value": "additive effect"}, {"measurement": "patients with DLT (grade 3 neutropenia not recovered to grade 1 by day 21)", "setting": "[3]; 6 mg/m^2 edotecarin cohort without 5-FU bolus, expanded to five patients", "value": "one patient"}, {"measurement": "patients with grade 4 neutropenia (DLT)", "setting": "[3]; 8 mg/m^2 edotecarin cohort, no 5-FU bolus, two of the three patients", "value": 66, "unit": "%"}, {"measurement": "deaths within 30 days of the last treatment dose", "setting": "[3]; 14 patients", "value": "No patients died"}, {"measurement": "patients discontinued from the study because of adverse events (neutropenia)", "setting": "[3]; 14 patients, 90 cycles", "value": "four patients"}, {"measurement": "patients with dose reductions because of AEs (neutropenia)", "setting": "[3]; 14 patients, 90 cycles", "value": "three patients"}, {"measurement": "patients with serious adverse events", "setting": "[3]; 14 patients, 90 cycles, two treatment-related, two unrelated", "value": "four patients"}, {"measurement": "patients with fatigue (AE overall)", "setting": "[3]; [10]", "value": 64, "unit": "%"}, {"measurement": "patients with neutropenia (AE overall)", "setting": "[3]; [10]", "value": 57, "unit": "%"}, {"measurement": "patients with pyrexia (AE overall)", "setting": "[3]; [10]", "value": 50, "unit": "%"}, {"measurement": "patients with vomiting (AE overall)", "setting": "[3]; [10]", "value": 42, "unit": "%"}, {"measurement": "patients with fatigue during cycle 1", "setting": "[3]; all 14 patients, cycle 1", "value": 35, "unit": "%"}, {"measurement": "patients with nausea during cycle 1", "setting": "[3]; all 14 patients, cycle 1", "value": 50, "unit": "%"}, {"measurement": "patients with neutropenia during cycle 1", "setting": "[3]; all 14 patients, cycle 1", "value": 50, "unit": "%"}, {"measurement": "changes in clinical laboratory parameters, vital signs measurements, or ECG results", "setting": "[3]; edotecarin with 5-FU/LV", "value": "No clinically important treatment-related changes"}, {"measurement": "gastrointestinal toxicities, especially diarrhea", "setting": "[3]; edotecarin with 5-FU/LV, in general", "value": "minimal"}, {"measurement": "maximum tolerated dose", "setting": "[3]; edotecarin with infusional 5-FU/LV every 2 weeks, only 6 and 8 mg/m^2 explored", "value": "no maximum tolerated dose was declared"}, {"measurement": "formation of active metabolites", "setting": "P450", "value": "does not form any active metabolites"}, {"measurement": "substrate for in vitro P450-mediated metabolism", "setting": "P450", "value": "is not a substrate"}, {"measurement": "recommended dose for phase II studies", "setting": "[4]; 3-week schedule with 1 week permitted for recovery", "value": 13, "unit": "mg/m^2"}, {"measurement": "recommended phase II dose", "setting": "[4]; once every 21 days, ref Hurwitz et al. [8]", "value": 13, "unit": "mg/m^2"}, {"measurement": "induction of single-strand DNA cleavage", "setting": "topoisomerase I (Topo I); at different DNA sequences", "value": "more effectively than NB-506 or camptothecin"}, {"measurement": "stability of induced DNA-Topo I complexes", "setting": "topoisomerase I (Topo I)", "value": "more stable than those occurring after exposure to camptothecin or NB-506"}, {"measurement": "activity on P-glycoprotein-related resistant cells", "setting": "[5]", "value": "effective"}, {"measurement": "AUC (0-inf)", "setting": "[6]; cycle 1", "value": "124.5 ± 34.7", "unit": "ng/h/mL"}, {"measurement": "AUC (0–24)", "setting": "[6]; cycle 1", "value": "91.0 ± 21.6", "unit": "ng/h/mL"}, {"measurement": "CL (total body-clearance)", "setting": "[6]; cycle 1", "value": "51.3 ± 12.4", "unit": "l/h/m^2"}, {"measurement": "T (terminal half-life)", "setting": "[6]; cycle 1", "value": "25.3 ± 6.4", "unit": "h"}, {"measurement": "Vss", "setting": "[6]; cycle 1", "value": "884.4 ± 296.0", "unit": "l/m^2"}, {"measurement": "Dose normalized AUC (0-inf)", "setting": "[6]; cycle 1", "value": "20.7 ± 5.4", "unit": "ng/h/mL"}, {"measurement": "Dose normalized AUC (0–24)", "setting": "[6]; cycle 1", "value": "15.3 ± 3.6", "unit": "h/ng/mL"}, {"measurement": "Dose normalized Cmax", "setting": "[6]; cycle 1", "value": "13.2 ± 2.9", "unit": "ng/mL"}, {"measurement": "AUC (0-inf)", "setting": "[6]; cycle 2", "value": "91.7 ± 31.9", "unit": "ng/h/mL"}, {"measurement": "AUC (0–24)", "setting": "[6]; cycle 2", "value": "65.3 ± 22.9", "unit": "ng/h/mL"}, {"measurement": "CL (total body-clearance)", "setting": "[6]; cycle 2", "value": "73.3± 29.7", "unit": "l/h/m^2"}, {"measurement": "T (terminal half-life)", "setting": "[6]; cycle 2", "value": "20.3 ± 4.2", "unit": "h"}, {"measurement": "Vss", "setting": "[6]; cycle 2", "value": "1408.7± 999.7", "unit": "l/m^2"}, {"measurement": "Dose normalized AUC (0-inf)", "setting": "[6]; cycle 2", "value": "15.4 ± 5.1", "unit": "ng/h/mL"}, {"measurement": "Dose normalized AUC (0–24)", "setting": "[6]; cycle 2", "value": "11.1 ± 3.7", "unit": "h/ng/mL"}, {"measurement": "Dose normalized Cmax", "setting": "[6]; cycle 2", "value": "10.1 ± 4.4", "unit": "ng/mL"}, {"measurement": "half-life", "setting": "[6]; cycle 1", "value": "~25", "unit": "h"}, {"measurement": "half-life", "setting": "[6]; cycle 2", "value": "~20", "unit": "h"}, {"measurement": "Tmax", "setting": "[6]; cycle 1", "value": "0.48 ± 0.22", "unit": "h"}, {"measurement": "Tmax", "setting": "[6]; cycle 2", "value": 0.83, "unit": "h"}, {"measurement": "disposition after completion of the IV administration", "setting": "[6]; very rapid initial decline then much slower reduction in plasma concentrations", "value": "bi-exponential disposition"}, {"measurement": "inhibition of proliferation of liver micrometastases", "setting": "liver micrometastases", "value": "highly effective"}, {"measurement": "patients with stable disease (including four minor responses)", "setting": "[7]; 24 patients, 13 patients", "value": 57, "unit": "%"}, {"measurement": "patients with partial response", "setting": "[7]; 24 patients, three patients", "value": 13, "unit": "%"}, {"measurement": "median time to tumor progression", "setting": "[7]", "value": 7.1, "unit": "months"}, {"measurement": "patients with grade 3/4 febrile neutropenia", "setting": "[7]; one patient", "value": 4.2, "unit": "%"}, {"measurement": "patients with progressive disease as best overall response", "setting": "[8]", "value": "six patients"}, {"measurement": "patients with stable disease as best overall response", "setting": "[8]", "value": "seven patients"}, {"measurement": "patients with complete response as best overall response", "setting": "[8]; patient with HCC, confirmed by cycle 5", "value": "one patient"}, {"measurement": "efficacy in combination with 5-FU (concurrent treatment)", "setting": "[9]", "value": "efficacy superior in combination than with the drugs as single agents"}]}
